Measured values published in BindingDB's records for PubMed 1706470 (Abbott Laboratories, 1991).

Target: T1, Gastrin/cholecystokinin type B receptor (Cavia porcellus, UniProt H0VZC5)
T1 sequence (H0VZC5 whole entry): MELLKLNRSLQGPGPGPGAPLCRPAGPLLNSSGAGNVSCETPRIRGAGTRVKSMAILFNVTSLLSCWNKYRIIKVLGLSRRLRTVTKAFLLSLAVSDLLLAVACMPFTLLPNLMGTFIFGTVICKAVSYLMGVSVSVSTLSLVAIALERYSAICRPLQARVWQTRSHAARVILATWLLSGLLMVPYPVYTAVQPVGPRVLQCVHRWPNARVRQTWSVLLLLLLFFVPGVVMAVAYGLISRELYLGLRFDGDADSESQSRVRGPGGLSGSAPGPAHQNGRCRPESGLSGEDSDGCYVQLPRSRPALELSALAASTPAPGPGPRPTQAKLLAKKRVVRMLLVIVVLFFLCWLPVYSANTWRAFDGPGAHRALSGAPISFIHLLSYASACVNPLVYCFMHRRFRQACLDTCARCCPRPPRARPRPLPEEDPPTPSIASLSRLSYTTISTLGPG

Ki: 510 nM
Structure (SMILES): CC(C)(C)OC(=O)NC(Cc1c[nH]c2ccccc12)C(=O)N(C(=O)C(N)Cc1ccccc1)C(=O)C(CC(=O)O)NC(=O)C(N)CCCCNC(=O)OCc1ccccc1 (stereo unspecified) [A-57282]
